# Laboratory results: PubChem BioAssay (NCI)
# Values joined by “and” are separate entries in the source; they are usually repeats but may differ in a detail not shown here. Equal entries are not always repeated.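 Assay format: 96-well plates, 48-hour exposure. Here, GI50 denotes the concentration required for 50% inhibition of growth. At the TGI there is no net growth.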
# Experiments:
# Assay in all cases: NCI tumour cell line growth inhibition, 48 h
# M14 melanoma = system: M14 melanoma
# HCT-15 colon = system: HCT-15 colon
# UACC-257 melanoma = system: UACC-257 melanoma
# HS 578T breast = system: HS 578T breast
# SK-MEL-28 melanoma = system: SK-MEL-28 melanoma
# OVCAR-5 ovarian = system: OVCAR-5 ovarian
# SR leukemia = system: SR leukemia
# ACHN renal = system: ACHN renal
# A498 renal = system: A498 renal
# NCI/ADR-RES ovarian = system: NCI/ADR-RES ovarian
# RPMI-8226 leukemia = system: RPMI-8226 leukemia
# A549 NSCLC = system: A549 NSCLC
# SK-OV-3 ovarian = system: SK-OV-3 ovarian
# MDA-MB-231 breast = system: MDA-MB-231 breast
# HOP-92 NSCLC = system: HOP-92 NSCLC
# DU-145 prostate = system: DU-145 prostate
# SF-539 CNS = system: SF-539 CNS
# 786-0 renal = system: 786-0 renal
# UO-31 renal = system: UO-31 renal
# SNB-19 CNS = system: SNB-19 CNS
# TK-10 renal = system: TK-10 renal
# NCI-H23 lung = system: NCI-H23 lung
# MALME-3M melanoma = system: MALME-3M melanoma
# NCI-H226 lung = system: NCI-H226 lung
# SK-MEL-2 melanoma = system: SK-MEL-2 melanoma
# IGROV1 ovarian = system: IGROV1 ovarian
# SNB-75 CNS = system: SNB-75 CNS
# CCRF-CEM leukemia = system: CCRF-CEM leukemia
# SF-268 CNS = system: SF-268 CNS
# KM12 colon = system: KM12 colon
# OVCAR-3 ovarian = system: OVCAR-3 ovarian
# OVCAR-8 ovarian = system: OVCAR-8 ovarian
# COLO 205 colon = system: COLO 205 colon
# HCT-116 colon = system: HCT-116 colon
# HL-60(TB) leukemia = system: HL-60(TB) leukemia
# SW-620 colon = system: SW-620 colon
# PC-3 prostate = system: PC-3 prostate
# HOP-62 NSCLC = system: HOP-62 NSCLC
# U251 CNS = system: U251 CNS
# NCI-H460 lung = system: NCI-H460 lung
# RXF 393 renal = system: RXF 393 renal
# MOLT-4 leukemia = system: MOLT-4 leukemia
smiles,measurement,setting,value
COc1ccc2nc3cc(Cl)ccc3c(N)c2c1,GI50,M14 melanoma,1940 nM
same,TGI,M14 melanoma,3710 nM
same,GI50,HCT-15 colon,713 nM
same,TGI,HCT-15 colon,2970 nM
same,GI50,UACC-257 melanoma,1930 nM
same,TGI,UACC-257 melanoma,3480 nM
same,GI50,HS 578T breast,2860 nM
same,TGI,HS 578T breast,> 100000 nM
same,GI50,SK-MEL-28 melanoma,2010 nM
same,TGI,SK-MEL-28 melanoma,3510 nM
same,GI50,OVCAR-5 ovarian,2090 nM
same,TGI,OVCAR-5 ovarian,3660 nM
same,GI50,SR leukemia,236 nM
same,TGI,SR leukemia,591 nM
Cc1n(Cc2ccc3ccccc3c2)c2ccccc2[n+]1Cc1ccc2ccccc2c1,GI50,ACHN renal,2460 nM
same,TGI,ACHN renal,6490 nM
same,GI50,A498 renal,1350 nM
same,TGI,A498 renal,2880 nM
same,GI50,NCI/ADR-RES ovarian,19200 nM
same,TGI,NCI/ADR-RES ovarian,87600 nM
same,GI50,UACC-257 melanoma,1240 nM
same,TGI,UACC-257 melanoma,2790 nM
same,GI50,RPMI-8226 leukemia,29.1 nM
same,TGI,RPMI-8226 leukemia,1480 nM
same,GI50,A549 NSCLC,1760 nM
same,TGI,A549 NSCLC,3400 nM
same,GI50,SK-OV-3 ovarian,1650 nM
same,TGI,SK-OV-3 ovarian,3110 nM
same,GI50,MDA-MB-231 breast,1330 nM
same,TGI,MDA-MB-231 breast,2710 nM
same,GI50,HOP-92 NSCLC,31.7 nM
same,TGI,HOP-92 NSCLC,2060 nM
same,GI50,DU-145 prostate,1630 nM
same,TGI,DU-145 prostate,3040 nM
same,GI50,SK-MEL-28 melanoma,1540 nM
same,TGI,SK-MEL-28 melanoma,3180 nM
same,GI50,OVCAR-5 ovarian,1420 nM
same,TGI,OVCAR-5 ovarian,2820 nM
same,GI50,SF-539 CNS,1530 nM
same,TGI,SF-539 CNS,2910 nM
same,GI50,786-0 renal,1750 nM
same,TGI,786-0 renal,3320 nM
same,GI50,UO-31 renal,1500 nM
same,TGI,UO-31 renal,2870 nM
same,GI50,SNB-19 CNS,1350 nM
same,TGI,SNB-19 CNS,2770 nM
same,GI50,TK-10 renal,1550 nM
same,TGI,TK-10 renal,3030 nM
C/C=C/C[C@@H](C)C(=O)C1C(=O)N[C@@H](C(C)C)C(=O)N(C)CC(=O)N(C)[C@@H](CC(C)C)C(=O)N[C@@H](C(C)C)C(=O)N(C)[C@@H](CC(C)C)C(=O)N[C@@H](C)C(=O)N[C@@H](C)C(=O)N(C)[C@@H](CC(C)C)C(=O)N(C)[C@@H](CC(C)C)C(=O)N(C)[C@@H](C(C)C)C(=O)N1C (some centres not stated),GI50,A498 renal,50400 nM
same,TGI,A498 renal,71500 nM
same,GI50,UACC-257 melanoma,45500 nM
same,TGI,UACC-257 melanoma,> 20500 nM and 67000 nM
same,GI50,NCI-H23 lung,47000 nM
same,TGI,NCI-H23 lung,> 20500 nM
same,GI50,MALME-3M melanoma,75800 nM
same,GI50,NCI-H226 lung,45300 nM
same,TGI,NCI-H226 lung,18400 nM and 83200 nM
same,TGI,HOP-92 NSCLC,> 20500 nM
same,GI50,SK-MEL-2 melanoma,40800 nM
same,TGI,SK-MEL-2 melanoma,76300 nM
same,GI50,IGROV1 ovarian,20800 nM
same,TGI,IGROV1 ovarian,65600 nM
C/C(=C\C(=N\N=C(N)N)c1ccc(Cl)cc1)c1ccc(Cl)cc1,GI50,ACHN renal,42.4 nM
same,TGI,ACHN renal,1510 nM
same,GI50,SNB-75 CNS,1480 nM
same,TGI,SNB-75 CNS,2910 nM
same,GI50,CCRF-CEM leukemia,112 nM
same,TGI,CCRF-CEM leukemia,1940 nM
same,GI50,SF-268 CNS,1370 nM
same,TGI,SF-268 CNS,3060 nM
same,GI50,KM12 colon,1350 nM
same,TGI,KM12 colon,2690 nM
same,GI50,OVCAR-3 ovarian,1720 nM
same,TGI,OVCAR-3 ovarian,3210 nM
same,GI50,OVCAR-8 ovarian,1180 nM
same,TGI,OVCAR-8 ovarian,2900 nM
same,GI50,RPMI-8226 leukemia,2190 nM
same,TGI,RPMI-8226 leukemia,5140 nM
same,GI50,COLO 205 colon,19.8 nM
same,TGI,COLO 205 colon,34.3 nM
same,GI50,HCT-116 colon,251 nM
same,TGI,HCT-116 colon,712 nM
same,GI50,HL-60(TB) leukemia,2030 nM
same,TGI,HL-60(TB) leukemia,3780 nM
same,GI50,SW-620 colon,470 nM
same,TGI,SW-620 colon,1730 nM
same,GI50,A549 NSCLC,424 nM
same,TGI,A549 NSCLC,1560 nM
same,GI50,SK-OV-3 ovarian,1690 nM
same,TGI,SK-OV-3 ovarian,3080 nM
same,GI50,HS 578T breast,2080 nM
same,TGI,HS 578T breast,4550 nM
same,GI50,NCI-H226 lung,2170 nM
same,TGI,NCI-H226 lung,4750 nM
same,GI50,PC-3 prostate,1290 nM
same,TGI,PC-3 prostate,2690 nM
same,GI50,HOP-62 NSCLC,45.4 nM
same,TGI,HOP-62 NSCLC,1620 nM
same,GI50,HOP-92 NSCLC,918 nM
same,TGI,HOP-92 NSCLC,2310 nM
same,GI50,DU-145 prostate,146 nM
same,TGI,DU-145 prostate,1500 nM
same,GI50,U251 CNS,924 nM
same,TGI,U251 CNS,2140 nM
same,GI50,NCI-H460 lung,1300 nM
same,TGI,NCI-H460 lung,2660 nM
same,GI50,RXF 393 renal,1710 nM
same,TGI,RXF 393 renal,3100 nM
same,GI50,MOLT-4 leukemia,276 nM
same,TGI,MOLT-4 leukemia,950 nM
same,GI50,UO-31 renal,1440 nM
same,TGI,UO-31 renal,2850 nM
